In brackets after ≈: the same amount, converted by molar mass.
How the values were obtained:
Bel-7402 = test: Cytotoxicity against human Bel7402 cells by MTT assay; type: functional, cell-based
A549 [1] = test: Cytotoxicity against human A549 cells by MTT assay; type: functional, cell-based
A549 [2] = test: Cytotoxicity against human A549 cells by SRB assay; type: functional, cell-based
SK-MEL-2 [3] = test: Cytotoxicity against human SK-MEL-2 cells by SRB assay; type: functional, cell-based
SK-OV-3 = test: Cytotoxicity against human SKOV3 cells by SRB assay; type: functional, cell-based
XF498 = test: Cytotoxicity against human XF498 cells by SRB assay; type: functional, cell-based
HCT-15 = test: Cytotoxicity against human HCT15 cells by SRB assay; type: functional, cell-based
HepG2 [4] = test: Cytotoxicity against human HepG2 cells; type: functional, cell-based
KB = test: Cytotoxicity against human KB cells; type: functional, cell-based
LNCaP = test: Cytotoxicity against human LNCAP cells; type: functional, cell-based
MCF7 [5] = test: Cytotoxicity against human MCF7 cells; type: functional, cell-based
SK-MEL-2 [6] = test: Cytotoxicity against human SK-MEL-2 cells; type: functional, cell-based
HeLa [7] = test: Cytotoxicity against human HeLa cells; type: functional, cell-based
HepG2 [8] = test: Cytotoxicity against human HepG2 cells after 72 hrs by MTT assay; type: functional, cell-based; settings: HepG2, 72 h
SH-SY5Y = test: Cytotoxicity against human SH-SY5Y cells after 72 hrs by MTT assay; type: functional, cell-based
[9] = Cytotoxicity against mouse S17 cells after 72 hrs by MTT assay; type: functional, cell-based; settings: S17, 72 h
[10] = Antioxidant activity assessed as ONOO scavenging activity; type: functional
A2780 = test: Cytotoxicity against human A2780 cells after 72 hrs by MTT assay; type: functional, cell-based; settings: A2780, 72 h
A-431 = test: Cytotoxicity against human A431 cells after 72 hrs by MTT assay; type: functional, cell-based; settings: A-431, 72 h
HeLa [11] = test: Cytotoxicity against human HeLa cells after 72 hrs by MTT assay; type: functional, cell-based
MCF7 [12] = test: Cytotoxicity against human MCF7 cells after 72 hrs by MTT assay; type: functional, cell-based; settings: MCF7, 72 h
HeLa [13] = test: Cytotoxicity against human HeLa cells assessed as reduction in cell viability incubated for 48 hrs by MTT assay; type: functional, cell-based
MCF7 [14] = test: Cytotoxicity against human MCF7 cells assessed as reduction in cell viability incubated for 48 hrs by MTT assay; type: functional, cell-based; settings: MCF7, 48 h
HeLa [15] = test: Cytotoxicity against human HeLa cells assessed as reduction in cell viability after 24 hrs by MTT assay; type: functional, cell-based
MCF7 [16] = test: Antiproliferative activity against human MCF7 cells assessed as reduction in cell viability after 48 hrs by MTT assay; type: functional, cell-based; settings: MCF7, 48 h
BHY = test: Antiproliferative activity against human BHY cells assessed as reduction in cell viability after 48 hrs by MTT assay; type: functional, cell-based
MIA PaCa-2 = test: Antiproliferative activity against human MIAPaCa2 cells assessed as reduction in cell viability after 48 hrs by MTT assay; type: functional, cell-based; settings: MIA PaCa-2, 48 h
COLO 205 = test: Antiproliferative activity against human COLO205 cells assessed as reduction in cell viability after 48 hrs by MTT assay; type: functional, cell-based; settings: COLO 205, 48 h
A549 [17] = test: Antiproliferative activity against human A549 cells assessed as reduction in cell viability after 48 hrs by MTT assay; type: functional, cell-based; settings: A549, 48 h
[18] = Cytotoxicity against human YD-10B cells assessed as reduction in cell viability after 48 hr by MTT asssay; type: functional, cell-based
HL-60 = test: Antiproliferative activity against human HL60 cells assessed as reduction in cell viability after 3 days by XTT assay; type: functional, cell-based; settings: HL-60, 72 h
PANC-1 [19] = test: Cytotoxicity against human PANC1 cells assessed as cell viability after 24 hrs by MTT assay relative to control; type: functional
CFPAC-1 [20] = test: Cytotoxicity against human CFPAC-1 cells assessed as cell viability after 24 hrs by MTT assay relative to control; type: functional
PANC-1 [21] = test: Antitumour activity against human PANC1 cells xenografted in ip dosed nude BALB/c mouse assessed as tumor weight for 18 days; type: functional
CFPAC-1 [22] = test: Antitumour activity against human CFPAC-1 cells xenografted in ip dosed nude BALB/c mouse assessed as tumor weight for 18 days; type: functional

C=C1C(=O)O[C@H]2[C@H]1[C@@H](OC(C)=O)C[C@@](C)(O)[C@@]13O[C@@H]1[C@@H](Cl)[C@](C)(O)[C@H]23
IC50 (Bel-7402): 3.3 to 6 µM | IC50 (A549 [1]): 3.3 to 6 µM

C=C1C(=O)O[C@@H]2C[C@@]3(C)C=CC(=O)C(C)=C3C[C@H]12
IC50 (A549 [2]): 0.4 to 26.8 µg/mL (≈ 1.64 to 110 µM) | IC50 (SK-MEL-2 [3]): 0.4 to 26.8 µg/mL (≈ 1.64 to 110 µM) | IC50 (SK-OV-3): 0.4 to 26.8 µg/mL (≈ 1.64 to 110 µM) | IC50 (XF498): 0.4 to 26.8 µg/mL (≈ 1.64 to 110 µM) | IC50 (HCT-15): 0.4 to 26.8 µg/mL (≈ 1.64 to 110 µM)

C=C1C(=O)O[C@H]2[C@H]1CC[C@@](C)(O)C1=C[C@@H](O)[C@@](C)(O)[C@@H]12
IC50 (HepG2 [4]): > 100 µM | IC50 (KB): > 100 µM | IC50 (LNCaP): > 100 µM | IC50 (MCF7 [5]): > 100 µM | IC50 (SK-MEL-2 [6]): > 100 µM

COc1ccc(-c2cc(=O)c3c(O)cc(O)cc3o2)cc1 [ACACETIN]
IC50 (A549 [2]): 0.4 to 26.8 µg/mL (≈ 1.41 to 94.3 µM) | IC50 (SK-MEL-2 [3]): 0.4 to 26.8 µg/mL (≈ 1.41 to 94.3 µM) | IC50 (SK-OV-3): 0.4 to 26.8 µg/mL (≈ 1.41 to 94.3 µM) | IC50 (XF498): 0.4 to 26.8 µg/mL (≈ 1.41 to 94.3 µM) | IC50 (HCT-15): 0.4 to 26.8 µg/mL (≈ 1.41 to 94.3 µM)

O=c1cc(-c2ccc(O)cc2)oc2cc(O)cc(O)c12 [APIGENIN]
IC50 (HeLa [7]): 6.09 µM

COc1ccc(-c2oc3cc(OC)c(OC)c(O)c3c(=O)c2OC)cc1OC [ARTEMETIN]
IC50 (HepG2 [8]): 229 to 233 µM | IC50 (SH-SY5Y): 229 to 233 µM | IC50 [9]: 229 to 233 µM

O=C(/C=C/c1ccc(O)c(O)c1)O[C@@H]1C[C@](O)(C(=O)O)C[C@@H](O)[C@H]1O [CHLOROGENIC ACID]
IC50 [10]: 0.52 µM

COc1cc(-c2cc(=O)c3c(O)c(OC)c(OC)cc3o2)ccc1O [CIRSILENEOL]
IC50 (A2780): 33 to 75 µg/mL (≈ 95.8 to 218 µM) | IC50 (A-431): 33 to 75 µg/mL (≈ 95.8 to 218 µM) | IC50 (HeLa [11]): 33 to 75 µg/mL (≈ 95.8 to 218 µM) | IC50 (MCF7 [12]): 33 to 75 µg/mL (≈ 95.8 to 218 µM)

CC1=CC(=O)C2=C(C)CC[C@@H]3[C@H](OC(=O)[C@H]3C)[C@@H]12 [DESACETOXYMATRICARIN]
IC50 (A549 [2]): 0.4 to 26.8 µg/mL (≈ 1.62 to 109 µM) | IC50 (SK-MEL-2 [3]): 0.4 to 26.8 µg/mL (≈ 1.62 to 109 µM) | IC50 (SK-OV-3): 0.4 to 26.8 µg/mL (≈ 1.62 to 109 µM) | IC50 (XF498): 0.4 to 26.8 µg/mL (≈ 1.62 to 109 µM) | IC50 (HCT-15): 0.4 to 26.8 µg/mL (≈ 1.62 to 109 µM)

COc1ccc(-c2cc(=O)c3c(O)c(OC)c(OC)cc3o2)cc1O [EUPATORIN]
IC50 (HeLa [13]): 8.1 to 63.2 µM | IC50 (MCF7 [14]): 10.3 to 91.9 µM

COc1cc(O)c2c(=O)cc(-c3ccc(O)cc3)oc2c1 [GENKWANIN]
IC50 (A549 [2]): 0.4 to 26.8 µg/mL (≈ 1.41 to 94.3 µM) | IC50 (SK-MEL-2 [3]): 0.4 to 26.8 µg/mL (≈ 1.41 to 94.3 µM) | IC50 (SK-OV-3): 0.4 to 26.8 µg/mL (≈ 1.41 to 94.3 µM) | IC50 (XF498): 0.4 to 26.8 µg/mL (≈ 1.41 to 94.3 µM) | IC50 (HCT-15): 0.4 to 26.8 µg/mL (≈ 1.41 to 94.3 µM) | IC50 (HeLa [13]): 8.1 to 63.2 µM | IC50 (MCF7 [14]): 10.3 to 91.9 µM | IC50 [10]: 1.01 µM

C=C1C(=O)O[C@@H]2C[C@@]3(C)CCCC(=C)[C@@H]3C[C@H]12 [ISOALANTOLACTONE]
IC50 (HeLa [15]): 8.15 µM

COc1cc(-c2oc3cc(O)cc(O)c3c(=O)c2O)ccc1O [ISORHAMNETIN]
IC50 (HeLa [13]): 8.1 to 63.2 µM | IC50 (MCF7 [14]): 10.3 to 91.9 µM

COc1cc(O)c2c(=O)c(OC)c(-c3ccc(O)cc3)oc2c1 [KUMATAKENIN]
IC50 (HeLa [13]): 8.1 to 63.2 µM | IC50 (MCF7 [14]): 10.3 to 91.9 µM

C=C(C)[C@@H]1CC[C@]2(C)CC[C@]3(C)[C@H](CC[C@@H]4[C@@]5(C)CC[C@H](O)C(C)(C)[C@@H]5CC[C@]43C)[C@@H]12 [LUPEOL]
IC50 (MCF7 [16]): 25.2 to 88.1 µM | IC50 (BHY): 25.2 to 88.1 µM | IC50 (MIA PaCa-2): 25.2 to 88.1 µM | IC50 (COLO 205): 25.2 to 88.1 µM | IC50 (A549 [17]): 25.2 to 88.1 µM

O=c1cc(-c2ccc(O)c(O)c2)oc2cc(O)cc(O)c12 [LUTEOLIN]
IC50 (HeLa [7]): 16.3 µM

CC(=O)O[C@H]1C(=O)[C@@]2(C)[C@H]([C@H](OC(=O)c3ccccc3)[C@]3(O)C[C@H](OC(=O)[C@H](O)[C@@H](NC(=O)c4ccccc4)c4ccccc4)C(C)=C1C3(C)C)[C@]1(OC(C)=O)CO[C@@H]1C[C@@H]2O [PACLITAXEL]
IC50 [18]: 13.1 µM

COc1cc2ccc(=O)oc2cc1OC [SCOPARONE]
IC50 (HL-60): 1.1 to 40.7 µg/mL (≈ 5.33 to 197 µM)

COc1cc2ccc(=O)oc2cc1O [SCOPOLETIN]
IC50 [10]: 1.03 µM

c1cc2c(cc1[C@H]1OC[C@H]3[C@@H]1CO[C@@H]3c1ccc3c(c1)OCO3)OCO2 [SESAMIN]
IC50 (HepG2 [8]): 229 to 233 µM | IC50 (SH-SY5Y): 229 to 233 µM | IC50 [9]: 229 to 233 µM

CC(C)[C@]12O[C@H]1[C@@H]1O[C@]13[C@]1(O[C@H]1C[C@H]1C4=C(CC[C@@]13C)C(=O)OC4)[C@@H]2O [TRIPTOLIDE]
Activity (PANC-1 [19]): <10% | Activity (CFPAC-1 [20]): <10% | Activity (PANC-1 [21]): <0.4 g | Activity (CFPAC-1 [22]): <0.4 g
